Data from PubChem BioAssay AID1918995 (Molecular Pharmacology Branch, DTP, NCI, 2023).

Tested on: 324938-238-R-J1-PDC complex spheroid growth, % test/control
Assay: Anticancer human tumor 324938-238-R-J1-PDC patient-derived bladder carcinoma cell line growth inhibition [AhR]
Conditions: for IC50: curve of first compound; for viability, T/C: stronger effect = lower value
How it was run: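 Spheroids combined tumor cells with HUVEC endothelial cells and human MSCs as stroma. AhR antagonists were paired with standard or investigational drugs, each dosed in half-log steps down from near clinical Cmax, or from 10 microM where Cmax was unknown.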

[1] = second compound 0.1 µM, first compound 0.0316 µM
[2] = second compound 0.1 µM, first compound 0.1 µM
[3] = second compound 0.1 µM, first compound 0.316 µM
[4] = second compound 0.1 µM, first compound 1 µM
[5] = second compound 0.1 µM, first compound 3.16 µM
[6] = second compound 0.1 µM, first compound 10 µM
[7] = second compound 0.316 µM, first compound 0.0316 µM
[8] = second compound 0.316 µM, first compound 0.1 µM
[9] = second compound 0.316 µM, first compound 0.316 µM
[10] = second compound 0.316 µM, first compound 1 µM
[11] = second compound 0.316 µM, first compound 3.16 µM
[12] = second compound 0.316 µM, first compound 10 µM
[13] = second compound 1 µM, first compound 0.0316 µM
[14] = second compound 1 µM, first compound 0.1 µM
[15] = second compound 1 µM, first compound 0.316 µM
[16] = second compound 1 µM, first compound 1 µM
[17] = second compound 1 µM, first compound 3.16 µM
[18] = second compound 1 µM, first compound 10 µM
[19] = second compound 3.16 µM, first compound 0.0316 µM
[20] = second compound 3.16 µM, first compound 0.1 µM
[21] = second compound 3.16 µM, first compound 0.316 µM
[22] = second compound 3.16 µM, first compound 1 µM
[23] = second compound 3.16 µM, first compound 3.16 µM
[24] = second compound 3.16 µM, first compound 10 µM
[25] = second compound 10 µM, first compound 0.0316 µM
[26] = second compound 10 µM, first compound 0.1 µM
[27] = second compound 10 µM, first compound 0.316 µM
[28] = second compound 10 µM, first compound 1 µM
[29] = second compound 10 µM, first compound 3.16 µM
[30] = second compound 10 µM, first compound 10 µM
[31] = second compound 0.1 µM, first compound 0.00949 µM
[32] = second compound 0.1 µM, first compound 0.03 µM
[33] = second compound 0.1 µM, first compound 0.0949 µM
[34] = second compound 0.1 µM, first compound 0.3 µM
[35] = second compound 0.316 µM, first compound 0.00949 µM
[36] = second compound 0.316 µM, first compound 0.03 µM
[37] = second compound 0.316 µM, first compound 0.0949 µM
[38] = second compound 0.316 µM, first compound 0.3 µM
[39] = second compound 1 µM, first compound 0.00949 µM
[40] = second compound 1 µM, first compound 0.03 µM
[41] = second compound 1 µM, first compound 0.0949 µM
[42] = second compound 1 µM, first compound 0.3 µM
[43] = second compound 3.16 µM, first compound 0.00949 µM
[44] = second compound 3.16 µM, first compound 0.03 µM
[45] = second compound 3.16 µM, first compound 0.0949 µM
[46] = second compound 3.16 µM, first compound 0.3 µM
[47] = second compound 10 µM, first compound 0.00949 µM
[48] = second compound 10 µM, first compound 0.03 µM
[49] = second compound 10 µM, first compound 0.0949 µM
[50] = second compound 10 µM, first compound 0.3 µM
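Also: spheroids exposed to agents for seven days before viability read.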

CC1(C)CCC(CN2CCN(c3ccc(C(=O)NS(=O)(=O)c4ccc(NCC5CCOCC5)c([N+](=O)[O-])c4)c(Oc4cnc5[nH]ccc5c4)c3)CC2)=C(c2ccc(Cl)cc2)C1 + Cc1cncc(-c2nc(NCCc3c[nH]c4ccccc34)c3ncn(C(C)C)c3n2)c1
IC50 (second compound 0.1 µM): > 10 µM | IC50 (second compound 0.316 µM): > 10 µM | IC50 (second compound 1 µM): > 10 µM | IC50 (second compound 3.16 µM): > 10 µM | IC50 (second compound 10 µM): < 0.0316 µM | viability, T/C [1]: 108% | viability, T/C [2]: 80.3% | viability, T/C [3]: 109% | viability, T/C [4]: 93% | viability, T/C [5]: 109% | viability, T/C [6]: 117% | viability, T/C [7]: 94.2% | viability, T/C [8]: 96.9% | viability, T/C [9]: 136% | viability, T/C [10]: 87.7% | viability, T/C [11]: 86.6% | viability, T/C [12]: 114% | viability, T/C [13]: 112% | viability, T/C [14]: 123% | viability, T/C [15]: 131% | viability, T/C [16]: 107% | viability, T/C [17]: 103% | viability, T/C [18]: 130% | viability, T/C [19]: 106% | viability, T/C [20]: 93.5% | viability, T/C [21]: 115% | viability, T/C [22]: 102% | viability, T/C [23]: 112% | viability, T/C [24]: 106% | viability, T/C [25]: 13.5% | viability, T/C [26]: 8.66% | viability, T/C [27]: 11.9% | viability, T/C [28]: 7.88% | viability, T/C [29]: 9.07% | viability, T/C [30]: 12.5%

CC1COCCN1c1cc(C2(S(C)(=N)=O)CC2)nc(-c2ccnc3[nH]ccc23)n1 (stereo not given) + Cc1cncc(-c2nc(NCCc3c[nH]c4ccccc34)c3ncn(C(C)C)c3n2)c1
IC50 (second compound 0.1 µM): > 10 µM | IC50 (second compound 0.316 µM): > 10 µM | IC50 (second compound 1 µM): > 10 µM | IC50 (second compound 3.16 µM): > 10 µM | IC50 (second compound 10 µM): < 0.0316 µM | viability, T/C [1]: 112% | viability, T/C [2]: 126% | viability, T/C [3]: 90.9% | viability, T/C [4]: 93.4% | viability, T/C [5]: 93.2% | viability, T/C [6]: 74.2% | viability, T/C [7]: 98.4% | viability, T/C [8]: 127% | viability, T/C [9]: 127% | viability, T/C [10]: 110% | viability, T/C [11]: 70.2% | viability, T/C [12]: 86.7% | viability, T/C [13]: 111% | viability, T/C [14]: 109% | viability, T/C [15]: 108% | viability, T/C [16]: 96.4% | viability, T/C [17]: 87.5% | viability, T/C [18]: 73.5% | viability, T/C [19]: 80.5% | viability, T/C [20]: 92.5% | viability, T/C [21]: 89.8% | viability, T/C [22]: 109% | viability, T/C [23]: 87.1% | viability, T/C [24]: 81.1% | viability, T/C [25]: 8.69% | viability, T/C [26]: 13.3% | viability, T/C [27]: 17.8% | viability, T/C [28]: 14.7% | viability, T/C [29]: 8.67% | viability, T/C [30]: 5.3%

CCN(c1cc(-c2ccc(CN3CCOCC3)cc2)cc(C(=O)NCc2c(C)cc(C)[nH]c2=O)c1C)C1CCOCC1 + Cc1cncc(-c2nc(NCCc3c[nH]c4ccccc34)c3ncn(C(C)C)c3n2)c1
IC50 (second compound 0.1 µM): > 3 µM | IC50 (second compound 0.316 µM): > 3 µM | IC50 (second compound 1 µM): > 3 µM | IC50 (second compound 3.16 µM): > 3 µM | IC50 (second compound 10 µM): < 0.00949 µM | viability, T/C [31]: 106% | viability, T/C [32]: 135% | viability, T/C [33]: 123% | viability, T/C [34]: 104% | viability, T/C (second compound 0.1 µM, first compound 0.949 µM): 106% | viability, T/C (second compound 0.1 µM, first compound 3 µM): 156% | viability, T/C [35]: 94.5% | viability, T/C [36]: 89.3% | viability, T/C [37]: 112% | viability, T/C [38]: 105% | viability, T/C (second compound 0.316 µM, first compound 0.949 µM): 109% | viability, T/C (second compound 0.316 µM, first compound 3 µM): 112% | viability, T/C [39]: 83.9% | viability, T/C [40]: 118% | viability, T/C [41]: 117% | viability, T/C [42]: 109% | viability, T/C (second compound 1 µM, first compound 0.949 µM): 94% | viability, T/C (second compound 1 µM, first compound 3 µM): 108% | viability, T/C [43]: 102% | viability, T/C [44]: 102% | viability, T/C [45]: 124% | viability, T/C [46]: 86.3% | viability, T/C (second compound 3.16 µM, first compound 0.949 µM): 110% | viability, T/C (second compound 3.16 µM, first compound 3 µM): 93.8% | viability, T/C [47]: 12.1% | viability, T/C [48]: 15.5% | viability, T/C [49]: 15.5% | viability, T/C [50]: 17.9% | viability, T/C (second compound 10 µM, first compound 0.949 µM): 8.72% | viability, T/C (second compound 10 µM, first compound 3 µM): 7.72%

Nc1ncn(C2CC(O)C(CO)S2)c(=O)n1 (stereo not given) + Cc1cncc(-c2nc(NCCc3c[nH]c4ccccc34)c3ncn(C(C)C)c3n2)c1
IC50 (second compound 0.1 µM): > 0.3 µM | IC50 (second compound 0.316 µM): > 0.3 µM | IC50 (second compound 1 µM): > 0.3 µM | IC50 (second compound 3.16 µM): > 0.3 µM | IC50 (second compound 10 µM): < 0.000949 µM | viability, T/C (second compound 0.1 µM, first compound 0.000949 µM): 122% | viability, T/C (second compound 0.1 µM, first compound 0.003 µM): 113% | viability, T/C [31]: 122% | viability, T/C [32]: 95.6% | viability, T/C [33]: 118% | viability, T/C [34]: 126% | viability, T/C (second compound 0.316 µM, first compound 0.000949 µM): 113% | viability, T/C (second compound 0.316 µM, first compound 0.003 µM): 102% | viability, T/C [35]: 114% | viability, T/C [36]: 99% | viability, T/C [37]: 129% | viability, T/C [38]: 130% | viability, T/C (second compound 1 µM, first compound 0.000949 µM): 92.1% | viability, T/C (second compound 1 µM, first compound 0.003 µM): 134% | viability, T/C [39]: 103% | viability, T/C [40]: 111% | viability, T/C [41]: 131% | viability, T/C [42]: 126% | viability, T/C (second compound 3.16 µM, first compound 0.000949 µM): 113% | viability, T/C (second compound 3.16 µM, first compound 0.003 µM): 99.5% | viability, T/C [43]: 130% | viability, T/C [44]: 98.2% | viability, T/C [45]: 94.9% | viability, T/C [46]: 120% | viability, T/C (second compound 10 µM, first compound 0.000949 µM): 12.2% | viability, T/C (second compound 10 µM, first compound 0.003 µM): 16.9% | viability, T/C [47]: 9.06% | viability, T/C [48]: 13.4% | viability, T/C [49]: 11.2% | viability, T/C [50]: 10.7%
